± gives the expanded uncertainty stated by the source.
Columns and labels:
[1] = activity coefficient (dimensionless); of the first substance listed, at infinite dilution; xn = mol fraction of the nth substance listed; settings: Liquid, Chromatography, x1 = 0
[2] = 308.15 K; 101.33 kPa; Liquid; Vibrating tube method

mass density [2]	SMILES	activity coefficient ([1]; 298.15 K)	activity coefficient ([1]; 308.15 K)	activity coefficient ([1]; 318.15 K)	activity coefficient ([1]; 328.15 K)	activity coefficient ([1]; 338.15 K)	activity coefficient ([1]; 348.15 K)	activity coefficient ([1]; 358.15 K)	activity coefficient ([1]; 368.15 K)
	C=CCCCCCC [oct-1-ene] + CC(C)C[P+](C)(CC(C)C)CC(C)C.Cc1ccc(S(=O)(=O)[O-])cc1	16.6 ± 1.1	15 ± 1	12.2 ± 0.8	10.8 ± 0.74				
	CCCO [propan-1-ol] + CC(C)C[P+](C)(CC(C)C)CC(C)C.Cc1ccc(S(=O)(=O)[O-])cc1		0.278 ± 0.03	0.282 ± 0.03	0.28 ± 0.03	0.284 ± 0.03	0.287 ± 0.031	0.299 ± 0.031	0.287 ± 0.031
	C1CCOC1 [tetrahydrofuran] + CC(C)C[P+](C)(CC(C)C)CC(C)C.Cc1ccc(S(=O)(=O)[O-])cc1	1.41 ± 0.09	1.31 ± 0.09	1.22 ± 0.08	1.12 ± 0.07	1.09 ± 0.07	1.05 ± 0.07	1.05 ± 0.07	
	C#CCCCCC [1-heptyne] + CC(C)C[P+](C)(CC(C)C)CC(C)C.Cc1ccc(S(=O)(=O)[O-])cc1	2.57 ± 0.17	2.62 ± 0.18	2.54 ± 0.17	2.54 ± 0.17				
	Cc1ccccc1 [toluene] + CC(C)C[P+](C)(CC(C)C)CC(C)C.Cc1ccc(S(=O)(=O)[O-])cc1	1.94 ± 0.13	1.81 ± 0.12	1.78 ± 0.12	1.69 ± 0.11	1.66 ± 0.11	1.65 ± 0.11	1.64 ± 0.11	1.61 ± 0.11
	Cc1ccc(C)cc1 [1,4-dimethylbenzene] + CC(C)C[P+](C)(CC(C)C)CC(C)C.Cc1ccc(S(=O)(=O)[O-])cc1	2.54 ± 0.17	2.44 ± 0.17	2.4 ± 0.16	2.23 ± 0.15	2.26 ± 0.15	2.23 ± 0.15	2.24 ± 0.15	2.21 ± 0.15
	C1CCCCCCC1 [cyclooctane] + CC(C)C[P+](C)(CC(C)C)CC(C)C.Cc1ccc(S(=O)(=O)[O-])cc1	10.5 ± 0.7	8.54 ± 0.58	7.48 ± 0.51	6.67 ± 0.45				
	CCCCCCC [heptane] + CC(C)C[P+](C)(CC(C)C)CC(C)C.Cc1ccc(S(=O)(=O)[O-])cc1	35.2 ± 2.4	26.4 ± 1.8	20.8 ± 1.4	16.1 ± 1.1				
	C1CCCCCC1 [cycloheptane] + CC(C)C[P+](C)(CC(C)C)CC(C)C.Cc1ccc(S(=O)(=O)[O-])cc1	12.3 ± 0.8	9.79 ± 0.67	7.64 ± 0.52	6.55 ± 0.45				
	C#CCCCCCC [1-octyne] + CC(C)C[P+](C)(CC(C)C)CC(C)C.Cc1ccc(S(=O)(=O)[O-])cc1	3.19 ± 0.22	3.08 ± 0.21	3.06 ± 0.21	3.04 ± 0.21				
	C#CCCC [1-pentyne] + CC(C)C[P+](C)(CC(C)C)CC(C)C.Cc1ccc(S(=O)(=O)[O-])cc1	3.01 ± 0.2	2.55 ± 0.17	2.24 ± 0.15	1.98 ± 0.13				
1061 ± 3 kg/m3	CC(C)C[P+](C)(CC(C)C)CC(C)C.Cc1ccc(S(=O)(=O)[O-])cc1 [triisobutylmethylphosphonium p-toluenesulfonate]								
	COC(C)(C)C [2-methoxy-2-methylpropane] + CC(C)C[P+](C)(CC(C)C)CC(C)C.Cc1ccc(S(=O)(=O)[O-])cc1	17.1 ± 1.2	11 ± 0.8	8.26 ± 0.56	5.68 ± 0.39	5 ± 0.34	4.57 ± 0.31	4.16 ± 0.28	
	CCCCCCCCC [nonane] + CC(C)C[P+](C)(CC(C)C)CC(C)C.Cc1ccc(S(=O)(=O)[O-])cc1	26.8 ± 1.8	24.7 ± 1.7	21.6 ± 1.5	19.8 ± 1.4				
	CCCCO [butan-1-ol] + CC(C)C[P+](C)(CC(C)C)CC(C)C.Cc1ccc(S(=O)(=O)[O-])cc1			0.322 ± 0.031	0.318 ± 0.031	0.319 ± 0.031	0.328 ± 0.032	0.33 ± 0.032	0.323 ± 0.032
	CCc1ccccc1 [ethylbenzene] + CC(C)C[P+](C)(CC(C)C)CC(C)C.Cc1ccc(S(=O)(=O)[O-])cc1	2.51 ± 0.17	2.37 ± 0.16	2.33 ± 0.16	2.25 ± 0.15	2.2 ± 0.15	2.17 ± 0.15	2.16 ± 0.15	2.09 ± 0.14
	C#CCCCC [1-hexyne] + CC(C)C[P+](C)(CC(C)C)CC(C)C.Cc1ccc(S(=O)(=O)[O-])cc1	2.69 ± 0.18	2.48 ± 0.17	2.32 ± 0.16	2.17 ± 0.15				

mass density [2]	SMILES	activity coefficient ([1]; 298.15 K)	activity coefficient ([1]; 308.15 K)	activity coefficient ([1]; 318.15 K)	activity coefficient ([1]; 328.15 K)	activity coefficient ([1]; 338.15 K)	activity coefficient ([1]; 348.15 K)	activity coefficient ([1]; 358.15 K)	activity coefficient ([1]; 368.15 K)
	CO [methanol] + CC(C)C[P+](C)(CC(C)C)CC(C)C.Cc1ccc(S(=O)(=O)[O-])cc1	0.168 ± 0.029	0.164 ± 0.029	0.166 ± 0.029	0.167 ± 0.029	0.171 ± 0.029	0.175 ± 0.029	0.178 ± 0.029	0.179 ± 0.029
	Cc1cccc(C)c1 [1,3-dimethylbenzene] + CC(C)C[P+](C)(CC(C)C)CC(C)C.Cc1ccc(S(=O)(=O)[O-])cc1	2.68 ± 0.18	2.48 ± 0.17	2.44 ± 0.17	2.33 ± 0.16	2.36 ± 0.16	2.28 ± 0.16	2.27 ± 0.15	2.23 ± 0.15
	CCCCCCCC [octane] + CC(C)C[P+](C)(CC(C)C)CC(C)C.Cc1ccc(S(=O)(=O)[O-])cc1	30.7 ± 2.1	25.8 ± 1.8	20.6 ± 1.4	17.2 ± 1.2				
	CCCCCC [hexane] + CC(C)C[P+](C)(CC(C)C)CC(C)C.Cc1ccc(S(=O)(=O)[O-])cc1	48.8 ± 3.3	32.2 ± 2.2	23.3 ± 1.6	16.4 ± 1.1				
	C=CCCCCC [1-heptene] + CC(C)C[P+](C)(CC(C)C)CC(C)C.Cc1ccc(S(=O)(=O)[O-])cc1	19.2 ± 1.3	14.6 ± 1	11.9 ± 0.8	9.62 ± 0.66				
	C=CCCC [1-pentene] + CC(C)C[P+](C)(CC(C)C)CC(C)C.Cc1ccc(S(=O)(=O)[O-])cc1	30.5 ± 2.1	20.7 ± 1.4	14.5 ± 1	9.91 ± 0.68				
	CCCCCCCCCC [decane] + CC(C)C[P+](C)(CC(C)C)CC(C)C.Cc1ccc(S(=O)(=O)[O-])cc1	33.3 ± 2.3	29.2 ± 2	26 ± 1.8	23.6 ± 1.6				
	CCO [ethanol] + CC(C)C[P+](C)(CC(C)C)CC(C)C.Cc1ccc(S(=O)(=O)[O-])cc1		0.263 ± 0.03	0.259 ± 0.03	0.261 ± 0.03	0.262 ± 0.03	0.266 ± 0.03	0.268 ± 0.03	0.266 ± 0.03
	O [water] + CC(C)C[P+](C)(CC(C)C)CC(C)C.Cc1ccc(S(=O)(=O)[O-])cc1			0.585 ± 0.041	0.552 ± 0.04	0.534 ± 0.039	0.524 ± 0.039	0.492 ± 0.037	0.477 ± 0.037
	C1CCCC1 [cyclopentane] + CC(C)C[P+](C)(CC(C)C)CC(C)C.Cc1ccc(S(=O)(=O)[O-])cc1	20.6 ± 1.4	13.5 ± 0.9	9.69 ± 0.66	6.79 ± 0.46				
	C1CCCCC1 [cyclohexane] + CC(C)C[P+](C)(CC(C)C)CC(C)C.Cc1ccc(S(=O)(=O)[O-])cc1	22.5 ± 1.5	14.5 ± 1	10.5 ± 0.7	7.67 ± 0.52				
	CCCCCO [pentan-1-ol] + CC(C)C[P+](C)(CC(C)C)CC(C)C.Cc1ccc(S(=O)(=O)[O-])cc1					0.34 ± 0.032	0.346 ± 0.032	0.354 ± 0.032	0.357 ± 0.033
	c1ccccc1 [benzene] + CC(C)C[P+](C)(CC(C)C)CC(C)C.Cc1ccc(S(=O)(=O)[O-])cc1	1.53 ± 0.1	1.42 ± 0.09	1.35 ± 0.09	1.28 ± 0.08	1.25 ± 0.08	1.21 ± 0.08	1.2 ± 0.08	1.18 ± 0.08
	Cc1ccccc1C [1,2-dimethylbenzene] + CC(C)C[P+](C)(CC(C)C)CC(C)C.Cc1ccc(S(=O)(=O)[O-])cc1	2.31 ± 0.16	2.21 ± 0.15	2.18 ± 0.15	2.1 ± 0.14	2.06 ± 0.14	2.04 ± 0.14	2.03 ± 0.14	2.01 ± 0.14
	CCCCC [pentane] + CC(C)C[P+](C)(CC(C)C)CC(C)C.Cc1ccc(S(=O)(=O)[O-])cc1	61.4 ± 4.2	41.5 ± 2.8	28.5 ± 2	18.5 ± 1.3				
	C=CCCCC [hex-1-ene] + CC(C)C[P+](C)(CC(C)C)CC(C)C.Cc1ccc(S(=O)(=O)[O-])cc1	23.5 ± 1.6	16.5 ± 1.1	12.4 ± 0.8	9.35 ± 0.64				
	c1ccsc1 [thiophene] + CC(C)C[P+](C)(CC(C)C)CC(C)C.Cc1ccc(S(=O)(=O)[O-])cc1	0.901 ± 0.057	0.848 ± 0.054	0.843 ± 0.054	0.818 ± 0.053	0.812 ± 0.053	0.805 ± 0.052	0.804 ± 0.052	
